According to the NIST ThermoML archive (doi:10.1021/je049776w):
± gives the expanded uncertainty stated by the source.

Test: xn = mol fraction of the nth substance listed
Settings: 101.3 kPa, Liquid

Cc1ccc(C)cc1 [1,4-dimethylbenzene] + CN1CCCC1=O
Settings | mass density [kg/m3] | viscosity [mPa·s]
303.15 K, x1 = 0.0947 | 1005.71 ± 2.4 | 1.359 ± 0.045
303.15 K, x1 = 0.1893 | 988.37 ± 2.1 | 1.239 ± 0.039
303.15 K, x1 = 0.2858 | 971.07 ± 1.9 | 1.129 ± 0.034
303.15 K, x1 = 0.3838 | 953.82 ± 1.6 | 1.02 ± 0.03
303.15 K, x1 = 0.483 | 936.56 ± 1.4 | 0.9203 ± 0.026
303.15 K, x1 = 0.5836 | 919.47 ± 1.1 | 0.8327 ± 0.023
303.15 K, x1 = 0.6854 | 902.73 ± 0.96 | 0.7753 ± 0.021
303.15 K, x1 = 0.7888 | 885.85 ± 0.82 | 0.7001 ± 0.019
303.15 K, x1 = 0.8937 | 869.04 ± 0.73 | 0.6291 ± 0.017
303.15 K, x1 = 1 | 852.35 ± 0.72 | 0.5715 ± 0.015
313.15 K, x1 = 0.0947 | 996.79 ± 2.4 | 1.173 ± 0.039
313.15 K, x1 = 0.1893 | 979.45 ± 2.1 | 1.07 ± 0.034
313.15 K, x1 = 0.2858 | 962.14 ± 1.9 | 0.9754 ± 0.03
313.15 K, x1 = 0.3838 | 944.9 ± 1.6 | 0.8894 ± 0.026
313.15 K, x1 = 0.483 | 927.68 ± 1.4 | 0.807 ± 0.023
313.15 K, x1 = 0.5836 | 910.56 ± 1.1 | 0.7296 ± 0.021
313.15 K, x1 = 0.6854 | 893.86 ± 0.97 | 0.6862 ± 0.019
313.15 K, x1 = 0.7888 | 877.02 ± 0.83 | 0.619 ± 0.017
313.15 K, x1 = 0.8937 | 860.27 ± 0.75 | 0.5579 ± 0.015
313.15 K, x1 = 1 | 843.64 ± 0.74 | 0.508 ± 0.014
323.15 K, x1 = 0.0947 | 987.88 ± 2.4 | 1.023 ± 0.034
323.15 K, x1 = 0.1893 | 970.53 ± 2.1 | 0.9373 ± 0.03
323.15 K, x1 = 0.2858 | 953.21 ± 1.8 | 0.8571 ± 0.027
323.15 K, x1 = 0.3838 | 935.97 ± 1.6 | 0.7795 ± 0.024
323.15 K, x1 = 0.483 | 918.77 ± 1.4 | 0.7084 ± 0.021
323.15 K, x1 = 0.5836 | 901.68 ± 1.2 | 0.6521 ± 0.019
323.15 K, x1 = 0.6854 | 884.99 ± 0.98 | 0.6084 ± 0.017
323.15 K, x1 = 0.7888 | 868.16 ± 0.85 | 0.5517 ± 0.015
323.15 K, x1 = 0.8937 | 851.46 ± 0.78 | 0.4998 ± 0.014
323.15 K, x1 = 1 | 834.9 ± 0.77 | 0.4599 ± 0.013
333.15 K, x1 = 0.0947 | 978.93 ± 2.4 | 0.9019 ± 0.031
333.15 K, x1 = 0.1893 | 961.55 ± 2.1 | 0.8316 ± 0.027
333.15 K, x1 = 0.2858 | 944.23 ± 1.8 | 0.7602 ± 0.024
333.15 K, x1 = 0.3838 | 926.99 ± 1.6 | 0.694 ± 0.021
333.15 K, x1 = 0.483 | 909.8 ± 1.4 | 0.6321 ± 0.019
333.15 K, x1 = 0.5836 | 892.71 ± 1.2 | 0.5828 ± 0.017
333.15 K, x1 = 0.6854 | 876.03 ± 0.99 | 0.5437 ± 0.016
333.15 K, x1 = 0.7888 | 859.21 ± 0.87 | 0.4947 ± 0.014
333.15 K, x1 = 0.8937 | 842.56 ± 0.8 | 0.4504 ± 0.013
333.15 K, x1 = 1 | 826.09 ± 0.8 | 0.4298 ± 0.013
343.15 K, x1 = 0.0947 | 969.95 ± 2.3 | 0.8009 ± 0.027
343.15 K, x1 = 0.1893 | 952.56 ± 2.1 | 0.7371 ± 0.024
343.15 K, x1 = 0.2858 | 935.23 ± 1.8 | 0.681 ± 0.022
343.15 K, x1 = 0.3838 | 917.98 ± 1.6 | 0.6209 ± 0.019
343.15 K, x1 = 0.483 | 900.82 ± 1.4 | 0.5686 ± 0.017
343.15 K, x1 = 0.5836 | 883.72 ± 1.2 | 0.5173 ± 0.015
343.15 K, x1 = 0.6854 | 867.04 ± 1 | 0.4921 ± 0.015
343.15 K, x1 = 0.7888 | 850.22 ± 0.89 | 0.4476 ± 0.013
343.15 K, x1 = 0.8937 | 833.61 ± 0.83 | 0.4081 ± 0.013
343.15 K, x1 = 1 | 817.17 ± 0.83 | 0.3783 ± 0.012
353.15 K, x1 = 0.0947 | 960.94 ± 2.3 | 0.7219 ± 0.025
353.15 K, x1 = 0.1893 | 943.54 ± 2.1 | 0.6637 ± 0.022
353.15 K, x1 = 0.2858 | 926.19 ± 1.8 | 0.6119 ± 0.02
353.15 K, x1 = 0.3838 | 908.93 ± 1.6 | 0.561 ± 0.018
353.15 K, x1 = 0.483 | 891.78 ± 1.4 | 0.5127 ± 0.016
353.15 K, x1 = 0.5836 | 874.66 ± 1.2 | 0.4761 ± 0.015
353.15 K, x1 = 0.6854 | 857.97 ± 1 | 0.4466 ± 0.014
353.15 K, x1 = 0.7888 | 841.16 ± 0.91 | 0.4072 ± 0.013
353.15 K, x1 = 0.8937 | 824.56 ± 0.85 | 0.3726 ± 0.012
353.15 K, x1 = 1 | 808.22 ± 0.85 | 0.3382 ± 0.011
